Measured values: US9364462B2, “Alpha-1-adrenergic receptor agonist therapy” (The Regents of the University of California, priority 2012, dated 2016)

Experiments:
[1] = Learning and memory, Barnes maze, long-term treatment of normal WT mice; type: in vivo, mouse; details: 9 months, 10 mg/L in drinking water
Method: FIG. 18. Long-term alpha-1A agonist therapy improves learning and memory. Normal WT mice were treated 9 months with the alpha-1A agonist cirazoline, 10 mg/L in drinking water, and learning and memory were tested versus control mice using the Barnes maze. Left. […] Right. […] These studies treated mice for long periods with cirazoline, adding it to the drinking water. Mice treated with cirazoline had improvements in tests of learning and of memory (FIG. 18). […] 9 months in a mouse is equivalent to 18 to 27 years in a human.

cardiac myocytes = assay: Cardiac cell protective and adaptive (anabolic) effects in vitro, comparison of alpha-1-agonists; type: cell-based

In the case of `c1ccc(C2CC2)c(OCC2=NCCN2)c1` [cirazoline], the “memory trials (errors made)” value [1] is reported as “Findings were similar”, the “errors in learning trials” value ([1]; vs control mice) is reported as “fewer errors” and the “time to solve in learning trials” value ([1]; vs control mice) is reported as “faster to solve”. For the same compound, the “potency and efficacy relative to A61603” value (cardiac myocytes; cardiac myocytes, FIG. 1-2) was “a good bit less potent and efficacious” and the “specificity, potency, efficacy in stimulating anabolic effects in cells relative to A61603” value (cardiac myocytes; cells (e.g. cardiac myocytes)) was “not as specific, potent, or efficacious as A61603”.
